The source of these data is ChEMBL document CHEMBL4043287, “A Structure-Activity Relationship Study of Bitopic N6-Substituted Adenosine Derivatives as Biased Adenosine A1 Receptor Agonists” (J Med Chem, 2018).

Each structure is given as a SMILES string. Activity calls are given as the source filed them. No cut-off for these calls is given here.

The target in data set [1] is T1, Adenosine receptor A1 (Homo sapiens, UniProt P30542).
T1 sequence (P30542 whole entry): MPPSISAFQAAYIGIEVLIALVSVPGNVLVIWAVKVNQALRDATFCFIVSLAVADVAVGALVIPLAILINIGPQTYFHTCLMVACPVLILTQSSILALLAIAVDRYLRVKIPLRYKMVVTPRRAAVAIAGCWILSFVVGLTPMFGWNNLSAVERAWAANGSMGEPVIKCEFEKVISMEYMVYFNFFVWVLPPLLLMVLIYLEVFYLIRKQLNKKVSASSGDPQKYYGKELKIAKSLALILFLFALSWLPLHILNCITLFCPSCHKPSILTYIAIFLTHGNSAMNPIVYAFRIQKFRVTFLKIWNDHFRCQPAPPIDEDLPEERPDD
Description: Agonist activity at human A1AR expressed in FlpIn-CHO cells assessed as intracellular calcium mobilization by Fluo-4 dye-based fluorescence assay relative to control. The format is cell-based. (Calcium flux is commonly read through the fluorescence of an indicator in the cells.)

The target in data set [2] is T1, Adenosine receptor A1. Description: Agonist activity at human A1AR expressed in FlpIn-CHO cells assessed as inhibition of forskolin-stimulated cAMP accumulation preincubated for 10 mins followed by forskolin addition measured after 30 mins by Alphascreen assay. The format is functional, cell-based. On the technique in general: Cyclic AMP is a second messenger, typically raised through Gs and lowered through Gi signalling.

Data set [3] has as its target T2, Adenosine receptor A3 (Homo sapiens) (UniProt P0DMS8).
T2 sequence (whole entry): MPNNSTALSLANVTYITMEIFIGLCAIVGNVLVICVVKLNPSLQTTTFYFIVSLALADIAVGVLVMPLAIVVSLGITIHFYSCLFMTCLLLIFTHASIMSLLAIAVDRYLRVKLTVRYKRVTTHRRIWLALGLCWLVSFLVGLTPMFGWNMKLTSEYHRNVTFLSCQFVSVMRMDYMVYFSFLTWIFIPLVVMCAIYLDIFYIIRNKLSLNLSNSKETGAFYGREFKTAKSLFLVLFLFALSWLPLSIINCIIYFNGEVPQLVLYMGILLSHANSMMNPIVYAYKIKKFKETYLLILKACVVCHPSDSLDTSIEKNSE
The data set can be described thus: Agonist activity at human A3AR expressed in FlpIn-CHO cells assessed as inhibition of forskolin-stimulated cAMP accumulation up to 10 uM preincubated for 10 mins followed by forskolin addition measured after 30 mins by Alphascreen assay. It counts as functional, cell-based.

Data set [4] addresses T1, Adenosine receptor A1. The data set can be described thus: Agonist activity at human A1AR expressed in FlpIn-CHO cells assessed as intracellular calcium mobilization by Fluo-4 dye-based fluorescence assay. The format is cell-based.
For another data set, the target named is T3, Adenosine receptor A2b (Homo sapiens, UniProt P29275).
T3 sequence (P29275 whole entry): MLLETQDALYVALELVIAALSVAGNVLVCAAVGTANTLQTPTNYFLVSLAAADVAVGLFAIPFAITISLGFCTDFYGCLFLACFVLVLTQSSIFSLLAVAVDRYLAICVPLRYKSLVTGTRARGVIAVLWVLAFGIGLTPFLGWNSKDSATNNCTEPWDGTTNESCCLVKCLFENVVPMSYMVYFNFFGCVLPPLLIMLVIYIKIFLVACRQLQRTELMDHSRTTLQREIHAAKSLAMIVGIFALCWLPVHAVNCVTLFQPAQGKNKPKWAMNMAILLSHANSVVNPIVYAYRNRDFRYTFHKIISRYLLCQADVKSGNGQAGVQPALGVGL
Description: Agonist activity at human A2BAR expressed in FlpIn-CHO cells assessed as […] cAMP accumulation preincubated for 40 mins followed by forskolin addition measured after 30 mins by Alphascreen assay. It counts as functional, cell-based.

Data set [5] addresses T1, Adenosine receptor A1. The data set can be described thus: Agonist activity at human A1AR expressed in FlpIn-CHO cells assessed as intracellular calcium mobilization by measuring agonist transduction coefficient by Fluo-4 dye-based fluorescence assay. The format is cell-based.
Data set [6] deals with T4, Adenosine receptor A2b (Homo sapiens) (UniProt P29275).
T4 sequence (whole entry): T3 sequence (P29275 whole entry)
Description: Agonist activity at human A2BAR expressed in FlpIn-CHO cells assessed as […] cAMP accumulation preincubated for 40 mins followed by forskolin addition measured after 30 mins by Alphascreen assay relative to control. The format is functional, cell-based.

In the next data set the target is Adenosine receptor A2a (Homo sapiens, UniProt P29274). The data set can be described thus: Agonist activity at human A2A-AR expressed in FlpIn-CHO cells assessed as inhibition of forskolin-stimulated cAMP accumulation preincubated for 40 mins followed by forskolin addition measured after 30 mins by Alphascreen assay.

The Emax is the size of the effect at its maximum, as opposed to the concentration needed. Broadly, the EC50 is the concentration at which the effect is half-maximal.

Chain of Adenosine receptor A2a (P29274 whole entry): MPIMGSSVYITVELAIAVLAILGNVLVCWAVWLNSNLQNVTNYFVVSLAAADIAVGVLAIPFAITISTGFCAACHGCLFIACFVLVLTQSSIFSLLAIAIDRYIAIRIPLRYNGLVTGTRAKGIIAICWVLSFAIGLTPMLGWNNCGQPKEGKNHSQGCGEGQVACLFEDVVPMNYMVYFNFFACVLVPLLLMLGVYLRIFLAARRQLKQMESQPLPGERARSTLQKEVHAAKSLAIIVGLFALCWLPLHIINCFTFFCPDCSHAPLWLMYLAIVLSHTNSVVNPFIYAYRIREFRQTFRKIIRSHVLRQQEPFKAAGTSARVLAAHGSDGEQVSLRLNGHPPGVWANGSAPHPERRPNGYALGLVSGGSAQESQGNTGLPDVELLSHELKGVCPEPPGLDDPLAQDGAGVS

`Nc1nc(NCCCCCCNC(=O)c2ccc(-c3sc(N)c(C(=O)c4ccccc4)c3-c3cccc(C(F)(F)F)c3)cc2)c2ncn([C@@H]3O[C@H](CO)[C@@H](O)[C@H]3O)c2n1`: the results for the Emax (at Adenosine receptor A1 [1]; in data set [6]) were 34% and 43%, respectively. Besides, the EC50 is 1350 nM at Adenosine receptor A1 [2], 257 nM on Adenosine receptor A1 [4], 97.7 nM at Adenosine receptor A2b and 759 nM on Adenosine receptor A2a. Moreover, the inhibition result in data set [3] was “inactive”. Further, at Adenosine receptor A1 [5], the “log(activity)” value amounted to 6.15.
